Measured values as given in patent US8802815B2, “Peptides and uses thereof to modulate IGF-1 synthesis and IGF-1 receptor expression” (Universite Pierre et Marie Curie (Paris 6), priority 2009, dated 2014).

How the values were obtained:
Assay type in all cases: cell-based, mouse
IGF-1R = IGF-1R expression in chondrocytes in culture, optical density (FIG. 2)
Text: (§1) Inventors investigated P70 effect on IGF-1 synthesis and on expression of its receptor (IGF-1R) by means of chondrocytes in culture.

chondrocytes [1] = test: Chondrogenesis: cartilage nodule formation in chondrocytes culture (FIG. 6); details: 10^-7M peptide; 7th day of incubation; vs untreated chondrocytes
Procedure: In FIG. 6, the peptide P70 effect at a concentration of 10^−7M is compared with untreated chondrocytes (control). At 7th day of incubation, in the presence of the peptide, accelerated formation of nodules of cartilage is clearly observed. The cartilage nodules development (volume/culture) is 85% accelerated.

IGF-1 [2] = test: IGF-1 production in chondrocytes in culture (FIG. 2)
Text: as §1

type II collagen = test: Type II collagen production by immunochemistry, chondrocytes culture (FIG. 5); details: 10^-7M peptide; 5th day of culture
Procedure: The mouse embryos chondrocytes obtained according to same protocol as described above were cultured and incubated at a 10^−7M peptide P70 concentration. […] In fact, an increase of 150% is observed relative to the untreated control.

IGF-1 receptor = test: IGF-1R expression by immunohistochemistry, 5-day primary chondrocytes culture (FIG. 3); details: IHC, 5-day culture
IGF-1 [3] = test: IGF-1 synthesis by immunohistochemistry, primary chondrocytes culture (FIG. 4); details: IHC
Text: Moreover (FIG. 4), P70 inhibits IGF-1 synthesis at 10^−6M (30% inhibition at a high concentration of peptide) and stimulates IGF-1 synthesis at 10^−7M (90% increase at a low concentration of peptide).

chondrocytes [4] = test: [3H] thymidine incorporation in DNA (cell proliferation), primary chondrocytes culture
Procedure: To assess peptide ability to induce cell proliferation, inventors carried out a test showing [H^3] thymidine incorporation during DNA duplication according to Kurz et al., 1997 method. This test was adapted to the model used by the inventors, namely a primary mouse embryonic chondrocytes culture.
Chondrocytes, obtained by dissociation of mouse mandible condyles (MCDC) were incubated in a culture medium permitting chondrogenesis, in particular, 5×10^5 cells/ml were incubated with 1 μCi [^3H]-thymidine/ml of medium (Amersham, code TRA120, stock 1 mCi/ml, specific activity 5 Ci/mmol) for 3 hours at 37° C. in DMEM medium (Dulbecco's modified Eagle's medium) fetal calf serum (FCS) free but supplemented with 100 μg/ml of ascorbic acid, 1 mmol/L of calcium chloride, 10 mmol/L of 3-glycerophosphate, and antibiotics. Same medium, in which 5 μl of [^3H]-thymidine are added for 2 minutes, is used as negative control. Supernatant was removed and cells were washed twice with saline solution buffered at pH 7.0 (PBS), the cells are washed twice (for 5 minutes) with methanol. Then the cells are washed three times with a 10% trichloroacetic acid (TCA) cold solution. After washing cells twice with DDW, cells are incorporated in 200 μl of 0.3M NaOH for 15 minutes. The cells are then transferred in 3 ml of a neutralized scintillation fluid with 200 μl of 0.3M HCl. […]

effect on the production of IGF-1 receptor (IGF-1R; 10^-6M peptide): virtually inhibits
effect on expression of IGF-1 receptor (IGF-1R) (IGF-1R; 10^-7 M peptide): important stimulation effect
inhibition of IGF-1 receptor expression (IGF-1 receptor; 10^-6 M peptide): 36.8%
increase of IGF-1 receptor expression (IGF-1 receptor; 10^-7 M peptide): 23.8%
Substance: Acetyl-SNFGSRKFSYKAKFWTDVTTSELG-amide (Ac-SNFGSRKFSYKAKFWTDVTTSELG-NH2) [P70, 24-mer peptide of the invention, N-terminal acetyl, C-terminal amide]
acceleration of cartilage nodules development (volume/culture) (chondrocytes [1]): 85%
effect on the production of IGF-1 (IGF-1 [2]; 10^-6M peptide): virtually inhibits
effect on IGF-1 production (IGF-1 [2]; 10^-7 M peptide): important stimulation effect
increase of type II collagen production relative to the untreated control (type II collagen): 150%
inhibition of IGF-1 synthesis (IGF-1 [3]; 10^-6M peptide): 30%
increase of IGF-1 synthesis (IGF-1 [3]; 10^-7M peptide): 90%
stimulatory effect on the proliferation of chondrocytes, greater than the untreated control (chondrocytes [4]; 10^-6M peptide, 3 hours): 53%
stimulation effect on the proliferation of chondrocytes (chondrocytes [4]; 10^-7M peptide): not observed
